For the assay, the target named is T1, human MC4R (Homo sapiens, UniProt P32245).
T1 construct: expressed in transfected cells
The experiment in a line: Functional cAMP assay (CisBio HTRF) in BHK cells expressing human MC4R. As to conditions: for MC1R/MC4R cAMP EC50 ratio: MC1R cAMP EC50 divided by MC4R cAMP EC50. The format is cell-based. As for the experimental part:
In order to assess the potency of the compounds on human MC1R and human MC4R cAMP signalling was measured.
cAMP induction was measured by c-AMPdynamic2 assay, HTRF 62AM4PEC system from CisBio for the human MC1R and human MC4R according to the protocol provided by the vendor. BHK cells expressing the human MC1 or MC4 receptor were generated by stable transfection with expression vectors encoding the cDNA of either MC1R or MC4R.
In details; 25 μl compound—or standard solution were added in the respective wells. Compound was reconstituted in buffer (DMEM w/o phenol red, 10 mM
Hepes, lx Glutamine, 0.1% OV-albumin1, 1 mM IBMX) and serially diluted starting at 2 μM, 10-fold seven times. Dilutions were carried out in the same aforementioned buffer to the desired working concentration ranges (2× higher than the final concentration). 25 μl cell solution was then added and allowed to incubate for 30 min while lightly shaking, at 25° C. […] The provided components for the assay were reconstituted according to the CisBio assay protocol “3.1 supplied reagents and preparation procedure” in MilliQ purification system H2O and diluted 1:20 in lysis buffer. 25 μl cAMP-d2 and 25 μl Cryptate conjugate were added to all wells.
Plates were centrifuged at 1500 rpm for 30 sec and incubated for 1 h, lightly shaking, at 25° C. in a hotel stacker. The plates were read on Mithras LB 940 provided by Berthold Technologies The data were analysed by non-linear regression analysis of binding curves, using the Windows™ program GraphPad™ Prism (GraphPad Software, USA).
The latter is used when no full curve can be obtained in the concentration ranges indicated above.

[1] abbreviates: BHK cells expressing human MC4R, '>' = highest dose used with no response, read-out: MC4R cAMP EC50.

We go through 14 compounds from patent US20200223889A1, “Bicyclic Compounds Capable of Binding to Melanocortin 4 Receptor” (Novo Nordisk A/S, priority 2017, published 2020).

Read-outs that look alike come from different tables or passages of the source. Starred links: 1 amine or outer side, 2 acyl side, 3 side chain; linkers in the order of their positions; H or OH if unused. Positions of bridges follow the written chain, without caps; N, C: chain ends. Non-standard residues stand in square brackets, D forms with d. Residues, ends and D or L forms follow the SMILES beside them. Hyp = O=C(O)[C@@H]1C[C@@H](O)CN1; Cit = NC(=O)NCCC[C@H](N)C(=O)O; d(hCys) = N[C@H](CCS)C(=O)O; Api = NC1(C(=O)O)CCNCC1; X1 = C(CN[*:2])CS[*:1]; Aib = CC(C)(N)C(=O)O; Sar = CNCC(=O)O

T1 sequence (P32245 whole entry): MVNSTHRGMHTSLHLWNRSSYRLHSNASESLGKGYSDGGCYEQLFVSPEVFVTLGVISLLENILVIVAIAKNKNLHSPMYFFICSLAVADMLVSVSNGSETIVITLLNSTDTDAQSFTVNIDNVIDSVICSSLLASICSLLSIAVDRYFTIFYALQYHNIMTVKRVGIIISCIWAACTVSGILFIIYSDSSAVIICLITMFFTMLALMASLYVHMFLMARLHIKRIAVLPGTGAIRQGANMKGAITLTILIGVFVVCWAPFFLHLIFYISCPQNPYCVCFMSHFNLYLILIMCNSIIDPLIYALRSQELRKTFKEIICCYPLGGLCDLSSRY

Take `N=C(N)NCCC[C@@H]1NC(=O)[C@@H](Cc2ccccc2)NC(=O)[C@H](Cc2c[nH]cn2)NC(=O)[C@@H]2CSSC[C@H](NC(=O)[C@H](CCC(=O)O)NC(=O)[C@H](Cc3c[nH]c4ccccc34)NC1=O)C(=O)N[C@@H](Cc1c[nH]cn1)C(=O)N[C@H](Cc1ccccc1)C(=O)N[C@@H](CCCNC(=N)N)C(=O)N[C@@H](Cc1c[nH]c3ccccc13)C(=O)N[C@@H](CCC(=O)O)C(=O)N2` [Chem. 1, c[c[Cys-His-D-Phe-Arg-Trp-Glu-Cys]- His-D-Phe-Arg-Trp-Glu]] (cyclo(CH[dF]RWECH[dF]RWE); disulfide 1-7): the “MC1R/MC4R cAMP EC50 ratio” value is recorded as 13.
One may read the EC50 as the midpoint of the concentration-response curve. Regarding `CC(=O)N[C@@H](Cc1c[nH]cn1)C(=O)N[C@H](Cc1ccccc1)C(=O)N[C@@H](CCCNC(=N)N)C(=O)N[C@@H](Cc1c[nH]c2ccccc12)C(=O)NCC(=O)N[C@@H]1CCSSCCCNC(=O)CNC(=O)[C@H](Cc2c[nH]c3ccccc23)NC(=O)[C@H](CCCNC(=N)N)NC(=O)[C@@H](Cc2ccccc2)NC(=O)[C@H](Cc2c[nH]cn2)NC1=O` [Chem. 4, c[c[Cys-His-D-Phe-Arg-Trp-Gly-Cys]- His-D-Phe-Arg-Trp-Gly]] (Ac-H[dF]RWG[d(hCys)]H[dF]RWG; linker 6-C via X1), the “MC1R/MC4R cAMP EC50 ratio” value was found to be 7. In addition, the EC50 under setting [1] worked out at 0.09 nM.
As to `CC(=O)N[C@@H](Cc1c[nH]cn1)C(=O)N[C@H](Cc1ccccc1)C(=O)N[C@@H](CCCNC(=N)N)C(=O)N[C@@H](Cc1c[nH]c2ccccc12)C(=O)N[C@@H](C)C(=O)N[C@@H]1CCSSCCCNC(=O)[C@H](C)NC(=O)[C@H](Cc2c[nH]c3ccccc23)NC(=O)[C@H](CCCNC(=N)N)NC(=O)[C@@H](Cc2ccccc2)NC(=O)[C@H](Cc2c[nH]cn2)NC1=O` [Chem. 5, c[c[Cys-His-D-Phe-Arg-Trp-Ala-Cys]- His-D-Phe-Arg-Trp-Ala]] (Ac-H[dF]RWA[d(hCys)]H[dF]RWA; linker 6-C via X1), the “MC1R/MC4R cAMP EC50 ratio” value is given as 31. Under setting [1], the EC50 was 0.21 nM.
Regarding `CC1(C)NC(=O)[C@@H]2CSSC[C@H](NC(=O)[C@H](Cc3c[nH]c4ccccc34)NC(=O)[C@H](CCCNC(=N)N)NC(=O)[C@@H](Cc3ccccc3)NC(=O)[C@H](Cc3c[nH]cn3)NC1=O)C(=O)NC(C)(C)C(=O)N[C@@H](Cc1c[nH]cn1)C(=O)N[C@H](Cc1ccccc1)C(=O)N[C@@H](CCCNC(=N)N)C(=O)N[C@@H](Cc1c[nH]c3ccccc13)C(=O)N2` [Chem. 9, c[c[Cys-Aib-His-D-Phe-Arg-Trp-Cys]- Aib-His-D-Phe-Arg-Trp]] (cyclo([Aib]H[dF]RWC[Aib]H[dF]RWC); disulfide 6-12), the “MC1R/MC4R cAMP EC50 ratio” value is 201.
With `C[C@@H]1NC(=O)[C@@H]2CSSC[C@H](NC(=O)[C@H](Cc3c[nH]c4ccccc34)NC(=O)[C@H](CCN)NC(=O)[C@@H](Cc3ccccc3)NC(=O)[C@H](Cc3c[nH]cn3)NC1=O)C(=O)N[C@@H](C)C(=O)N[C@@H](Cc1c[nH]cn1)C(=O)N[C@H](Cc1ccccc1)C(=O)N[C@@H](CCN)C(=O)N[C@@H](Cc1c[nH]c3ccccc13)C(=O)N2` [Chem. 17, c[c[Cys-Ala-His-D-Phe-Dab-Trp-Cys]- Ala-His-D-Phe-Dab-Trp]], the “MC1R/MC4R cAMP EC50 ratio” value is recorded as 288.
With `C[C@@H]1NC(=O)[C@@H]2CSSC[C@H](NC(=O)[C@H](Cc3c[nH]c4ccccc34)NC(=O)[C@H](Cc3c[nH]cn3)NC(=O)[C@@H](Cc3ccccc3)NC(=O)[C@H](Cc3c[nH]cn3)NC1=O)C(=O)N[C@@H](C)C(=O)N[C@@H](Cc1c[nH]cn1)C(=O)N[C@H](Cc1ccccc1)C(=O)N[C@@H](Cc1c[nH]cn1)C(=O)N[C@@H](Cc1c[nH]c3ccccc13)C(=O)N2` [Chem. 24, c[c[Cys-Ala-His-D-Phe-His-Trp-Cys]- Ala-His-D-Phe-His-Trp]] (cyclo(AH[dF]HWCAH[dF]HWC); disulfide 6-12), the “MC1R/MC4R cAMP EC50 ratio” value is 364. Moreover, the concentration giving a half-maximal response (EC50) under setting [1] was 0.49 nM.
On to `CN1CC(=O)N[C@@H](Cc2c[nH]cn2)C(=O)N[C@H](Cc2ccccc2)C(=O)N[C@@H](CCCNC(=N)N)C(=O)N[C@@H](Cc2c[nH]c3ccccc23)C(=O)N[C@H]2CSSC[C@H](NC(=O)[C@H](Cc3c[nH]c4ccccc34)NC(=O)[C@H](CCCNC(=N)N)NC(=O)[C@@H](Cc3ccccc3)NC(=O)[C@H](Cc3c[nH]cn3)NC(=O)CN(C)C2=O)C1=O` [Chem. 31, c[c[Cys-Sar-His-D-Phe-Arg-Trp-Cys]- Sar-His-D-Phe-Arg-Trp]] (cyclo(C[Sar]H[dF]RWC[Sar]H[dF]RW); disulfide 1-7), for which the “MC1R/MC4R cAMP EC50 ratio” value is listed as 27. Moreover, the 50% effective concentration (EC50) under setting [1] came out at 0.29 nM.
Turning to `N=C(N)NCCC[C@@H]1NC(=O)[C@@H](Cc2ccccc2)NC(=O)[C@H](Cc2c[nH]cn2)NC(=O)[C@@H]2C[C@@H](O)CN2C(=O)[C@@H]2CSSC[C@H](NC(=O)[C@H](Cc3c[nH]c4ccccc34)NC1=O)C(=O)N1C[C@H](O)C[C@H]1C(=O)N[C@@H](Cc1c[nH]cn1)C(=O)N[C@H](Cc1ccccc1)C(=O)N[C@@H](CCCNC(=N)N)C(=O)N[C@@H](Cc1c[nH]c3ccccc13)C(=O)N2` [Chem. 32, c[c[Cys-Hyp-His-D-Phe-Arg-Trp- Cys]-Hyp-His-D-Phe-Arg-Trp]] (cyclo(C[Hyp]H[dF]RWC[Hyp]H[dF]RW); disulfide 1-7), the concentration for a half-maximal effect (EC50) was determined as 0.12 nM and the “MC1R/MC4R cAMP EC50 ratio” value was determined as 17.
For the compound `C[C@@H]1NC(=O)[C@@H]2CSSC[C@H](NC(=O)[C@H](Cc3c[nH]c4ccccc34)NC(=O)[C@H](CCCNC(=N)N)N(C)C(=O)[C@@H](Cc3ccccc3)NC(=O)[C@H](Cc3c[nH]cn3)NC1=O)C(=O)N[C@@H](C)C(=O)N[C@@H](Cc1c[nH]cn1)C(=O)N[C@H](Cc1ccccc1)C(=O)N(C)[C@@H](CCCNC(=N)N)C(=O)N[C@@H](Cc1c[nH]c3ccccc13)C(=O)N2` [Chem. 37, c[c[Cys-Ala-His-D-Phe-N-MeArg-Trp- Cys]-Ala-His-D-Phe-N-MeArg-Trp]], the “MC1R/MC4R cAMP EC50 ratio” value is 8.
In the case of `CC1(C)NC(=O)[C@@H]2CSSC[C@H](NC(=O)[C@H](Cc3c[nH]c4ccccc34)NC(=O)[C@H](CCCNC(=N)N)NC(=O)[C@@H](Cc3ccccc3)NC(=O)[C@@H]3CCCN3C1=O)C(=O)NC(C)(C)C(=O)N1CCC[C@H]1C(=O)N[C@H](Cc1ccccc1)C(=O)N[C@@H](CCCNC(=N)N)C(=O)N[C@@H](Cc1c[nH]c3ccccc13)C(=O)N2` [Chem. 39, c[c[Cys-Aib-Pro-D-Phe-Arg-Trp-Cys]- Aib-Pro-D-Phe-Arg-Trp]] (cyclo([Aib]P[dF]RWC[Aib]P[dF]RWC); disulfide 6-12), the “MC1R/MC4R cAMP EC50 ratio” value is given as 37.
Still for that read-out and setting: the figure for `O=C1N[C@H]2CSSC[C@H](NC(=O)[C@H](Cc3c[nH]c4ccccc34)NC(=O)[C@H](Cc3c[nH]cn3)NC(=O)[C@@H](Cc3ccccc3)NC(=O)[C@H](Cc3c[nH]cn3)NC(=O)C3(CCNCC3)NC2=O)C(=O)NC2(CCNCC2)C(=O)N[C@@H](Cc2c[nH]cn2)C(=O)N[C@H](Cc2ccccc2)C(=O)N[C@@H](Cc2c[nH]cn2)C(=O)N[C@H]1Cc1c[nH]c2ccccc12` [Chem. 50, c[c[Cys-ACP-His-D-Phe-His-Trp-Cys]- ACP-His-D-Phe-His-Trp]] (cyclo([Api]H[dF]HWC[Api]H[dF]HWC); disulfide 6-12) is 56.
Consider `N=C(N)NCCC[C@@H]1NC(=O)[C@@H](Cc2ccccc2)NC(=O)[C@H](Cc2c[nH]cn2)NC(=O)[C@H](CCC(=O)O)NC(=O)[C@@H]2CSSC[C@H](NC(=O)[C@H](Cc3c[nH]c4ccccc34)NC1=O)C(=O)N[C@@H](CCC(=O)O)C(=O)N[C@@H](Cc1c[nH]cn1)C(=O)N[C@H](Cc1ccccc1)C(=O)N[C@@H](CCCNC(=N)N)C(=O)N[C@@H](Cc1c[nH]c3ccccc13)C(=O)N2` [Chem. 51, c[c[Cys-Glu-His-D-Phe-Arg-Trp-Cys]- Glu-His-D-Phe-Arg-Trp]] (cyclo(CEH[dF]RWCEH[dF]RW); disulfide 1-7), for which the “MC1R/MC4R cAMP EC50 ratio” value is recorded as 13. Further, the EC50 under setting [1] was found to be 0.2 nM.
Take `NCCCC[C@@H]1NC(=O)[C@@H]2CSSC[C@H](NC(=O)[C@H](Cc3c[nH]c4ccccc34)NC(=O)[C@H](CCCNC(N)=O)NC(=O)[C@@H](Cc3ccccc3)NC(=O)[C@H](Cc3c[nH]cn3)NC1=O)C(=O)N[C@@H](CCCCN)C(=O)N[C@@H](Cc1c[nH]cn1)C(=O)N[C@H](Cc1ccccc1)C(=O)N[C@@H](CCCNC(N)=O)C(=O)N[C@@H](Cc1c[nH]c3ccccc13)C(=O)N2` [Chem. 55, c[c[Cys-Lys-His-D-Phe-Cit-Trp-Cys]- Lys-His-D-Phe-Cit-Trp]] (cyclo(CKH[dF][Cit]WCKH[dF][Cit]W); disulfide 1-7): the “MC1R/MC4R cAMP EC50 ratio” value was 41. Also, the EC50 under setting [1] is 0.1 nM.
`N=C(N)NCCC[C@@H]1NC(=O)[C@H](Cc2c[nH]c3ccccc23)NC(=O)[C@H](CCCNC(=N)N)NC(=O)[C@@H](Cc2ccccc2)NC(=O)[C@H](Cc2c[nH]cn2)NC(=O)[C@@H]2CSSC[C@H](NC1=O)C(=O)N[C@@H](Cc1c[nH]cn1)C(=O)N[C@H](Cc1ccccc1)C(=O)N[C@@H](CCCNC(=N)N)C(=O)N[C@@H](Cc1c[nH]c3ccccc13)C(=O)N[C@@H](CCCNC(=N)N)C(=O)N2` [Chem. 68, c[c[Cys-His-D-Phe-Arg-Trp-Arg-Cys]- His-D-Phe-Arg-Trp-Arg]] (cyclo(CH[dF]RWRCH[dF]RWR); disulfide 1-7): the “MC1R/MC4R cAMP EC50 ratio” value was determined as 1.
